The text below walks through data of publication PMC4728427, “Mechanism of allosteric activation of TMEM16A/ANO1 channels by a commonly used chloride channel blocker” (British Journal of Pharmacology, 2016).

Molecules are shown by their SMILES. Like-named read-outs stand apart in the source and are kept apart here.

The experiment addresses T1, Mouse TMEM16A (Mus musculus, UniProt Q8BHY3).
T1 construct: expressed in transfected cells; host or cells: HEK-293T
T1 sequence (Q8BHY3 1-960): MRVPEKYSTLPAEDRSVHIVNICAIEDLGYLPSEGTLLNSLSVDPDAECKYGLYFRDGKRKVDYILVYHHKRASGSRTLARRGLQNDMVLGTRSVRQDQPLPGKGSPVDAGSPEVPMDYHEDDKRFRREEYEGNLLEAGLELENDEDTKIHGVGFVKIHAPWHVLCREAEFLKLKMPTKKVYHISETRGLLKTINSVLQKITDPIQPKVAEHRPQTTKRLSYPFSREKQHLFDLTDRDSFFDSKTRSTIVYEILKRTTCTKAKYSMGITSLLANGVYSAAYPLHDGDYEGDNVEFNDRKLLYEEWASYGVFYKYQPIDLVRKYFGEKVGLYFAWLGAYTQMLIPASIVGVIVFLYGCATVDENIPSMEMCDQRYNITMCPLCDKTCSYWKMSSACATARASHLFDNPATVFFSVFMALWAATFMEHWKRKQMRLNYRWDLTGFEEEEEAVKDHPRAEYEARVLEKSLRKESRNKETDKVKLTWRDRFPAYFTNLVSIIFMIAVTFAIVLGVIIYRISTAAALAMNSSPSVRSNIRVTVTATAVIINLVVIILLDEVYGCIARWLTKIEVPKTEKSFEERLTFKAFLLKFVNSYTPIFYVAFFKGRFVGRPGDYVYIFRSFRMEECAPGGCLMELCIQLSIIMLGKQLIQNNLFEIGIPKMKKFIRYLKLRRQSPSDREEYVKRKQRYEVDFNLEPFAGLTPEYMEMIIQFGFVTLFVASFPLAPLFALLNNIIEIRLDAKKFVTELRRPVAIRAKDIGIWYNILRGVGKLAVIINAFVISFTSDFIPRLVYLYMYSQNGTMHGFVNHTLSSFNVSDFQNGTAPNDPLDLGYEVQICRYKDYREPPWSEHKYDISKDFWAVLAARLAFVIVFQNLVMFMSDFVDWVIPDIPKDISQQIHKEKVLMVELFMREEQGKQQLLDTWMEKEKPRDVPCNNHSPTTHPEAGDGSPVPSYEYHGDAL
Kind of experiment: Time-course of current block analysed by Langmuir formalism (kon, koff), 12.5 μM [Ca2+]i. Particulars: for Ki: read-out: Ki calculated as koff/kon. The format is cell-based. How it is done:
To investigate the precise mechanism by which extracellular A9C inhibits TMEM16A channels, macroscopic whole‐cell currents were recorded in the presence of 12.5 μM [Ca^2+]i and in response to 250 ms steps to various V m test pulse from a holding V m of −70 mV. The negative holding V m was used to prevent channel block before the test pulse was elicited. […] The time‐course of this decrease was described by a single‐exponential function characterized by a time constant τ B. The extent of the decrease in current was measured for various [A9C]ext and various V m test pulse and then plotted relative to the current measured in the absence of A9C (I 0) (Figure 3B). The γ values were close to 1 at each V m. In contrast, K i decreased as the V m was increased (Figure 3C). […] Thus, A9C appeared to block TMEM16A channels according to a Woodhull mechanism, consistent with a single A9C molecule blocking the channel pore.
The K i at various V m can also be estimated from analysis of the time‐course of current inhibition at various V m (see Supporting Information for details). K i estimated from this analysis were plotted against the V m in Figure 3C (open symbols). It is clear that K i estimated in this way is similar to the K i estimated from the Hill fit of the dose–response curves (filled symbols). […]
SUPPLEMENTARY INFORMATION
TMEM16A currents were measured with the whole-cell or inside-out configuration of
the patch-clamp technique using an Axon 200B amplifier (Molecular Devices, USA)
controlled with GE-pulse software (http://users.ge.ibf.cnr.it/pusch/programs-mik.htm).
Currents were filtered at 2-5 kHz and sampled at 10 kHz, unless stated otherwise.
Pipettes were prepared from borosilicate glass capillary tubes (Harvard Apparatus,
USA) using a Narishige PC-10 pipette puller (Narishige, Japan). Pipette tip diameter
yielded a resistance of 2.2 to 2.8 MΩ in the working solutions. The bath was grounded
through a 3 M KCl agar bridge connected to a Ag-AgCl reference electrode. In whole-
cell recordings, the series resistance was usually compensated by ≥70 % to achieve a
maximal effective series resistance generally lower than ~5 MΩ. To allow for
equilibration of the pipette solution with the cell interior, recordings started 5 min after
establishing the whole-cell configuration (Manoury, Tamuleviciute & Tammaro, 2010).
Experiments were conducted at 20-22 °C. The cell capacitance was assessed by
measuring the area beneath a capacitive transient elicited by a 10 mV step or via the
cell capacity compensation circuit of the amplifier.
Estimation of Ki at various Vm using the Langmuir formalism
Detailed kinetic analysis of TMEM16A channel activity is likely to require complex
models to account for the effects of Ca2+ and voltage on channel gating (Hartzell,
Putzier & Arreola, 2005). However, a simplified two-state kinetic scheme may be
applicable in conditions in which high [Ca2+]i is maintained to maximally activate the
TMEM16A channel. Under these conditions, and assuming that a molecule of A9C
binding into the pore of a TMEM16A channel results in the complete block of Cl- fluxes,
the Langmuir formalism applies:
Where O represents the conductive state and OB(A9C) is the A9C-blocked state. kon and
koff are the association and dissociation constant, respectively and Ki = koff/kon is the
apparent equilibrium dissociation constant.
The scheme (I) refers to the following differential equations: […]
(1 picture or pasted object on this page, not shown here)
Where O and OB(A9C) describe the probability of being open (unliganded) or blocked,
Thus, in the presence of a fixed [A9C]ext, when the Vm is stepped to a defined test-pulse
Where O∞ is the value of O(t) at the steady state and O(0) is the value of O(t) at the
beginning of the test pulse while τB is the time constant.
fitted with supplementary equation 3 and the resulting τB-1 plotted versus [A9C]ext
(Suppl. Fig.2). Supplementary equation 5 was used to fit the τB-1 obtained at a given Vm, […]

Regarding `O=C(O)c1c2ccccc2cc2ccccc12` [A9C, Anthracene‐9‐carboxylic acid], the koff came out at 94 ± 5 s⁻¹ (Vm 20 mV); 71 ± 9 s⁻¹ (Vm 40 mV); 49 ± 13 s⁻¹ (Vm 60 mV); 34 ± 9 s⁻¹ (Vm 80 mV); 12 ± 25 s⁻¹ (Vm 100 mV); 21 ± 17 s⁻¹ (Vm 120 mV). Moreover, the Ki is 168 µM (Vm 20 mV); 104 µM (Vm 40 mV); 62 µM (Vm 60 mV); 38 µM (Vm 80 mV); 12 µM (Vm 100 mV); 19 µM (Vm 120 mV).
